Marks after values point to notes of the source that are not given here.
Assay type: in vivo
Details: rat, PY 4 mg/kg oral; for Total amount in feces: 24 hr feces collection; for Total amount in brain (tissue weight): whole brain; for Total amount in cecum (tissue weight): whole cecum; for Total amount in colon (tissue weight): whole colon; for Total amount in duodenum (tissue weight): whole duodenum; for Total amount in heart (tissue weight): whole heart; for Total amount in ileum (tissue weight): whole ileum; for Total amount in jejunum (tissue weight): whole jejunum; for Total amount in kidney (tissue weight): whole kidney; for Total amount in liver (tissue weight): whole liver; for Total amount in lung (tissue weight): whole lung; for Total amount in spleen (tissue weight): whole spleen; for Total amount in stomach (tissue weight): whole stomach; for Total amount in testes (tissue weight): whole testes; for Total amount in tongue (tissue weight): whole tongue
[1] = 24 hr urine collection, mean ± SD, unit ppb printed
[2] = 24 hr, wet-g, mean ± SD, unit ppb printed
[3] = 24 hr, mean ± SD, unit ppb printed

Row | Compound | Total amount in feces (mean ± SD) | Concentration in urine [1] | Total amount in brain (tissue weight) (24 hr, mean ± SD) | Total amount in cecum (tissue weight) (24 hr, mean ± SD) | Total amount in colon (tissue weight) (24 hr, mean ± SD) | Total amount in duodenum (tissue weight) (24 hr, mean ± SD) | Total amount in heart (tissue weight) (24 hr, mean ± SD) | Total amount in ileum (tissue weight) (24 hr, mean ± SD) | Total amount in jejunum (tissue weight) (24 hr, mean ± SD) | Total amount in kidney (tissue weight) (24 hr, mean ± SD) | Total amount in liver (tissue weight) (24 hr, mean ± SD) | Total amount in lung (tissue weight) (24 hr, mean ± SD) | Total amount in spleen (tissue weight) (24 hr, mean ± SD) | Total amount in stomach (tissue weight) (24 hr, mean ± SD) | Total amount in testes (tissue weight) (24 hr, mean ± SD) | Total amount in tongue (tissue weight) (24 hr, mean ± SD) | Concentration in cecum [2] | Concentration in colon [2] | Concentration in heart [2] | Concentration in ileum [2] | other results
1 | c1cc2ccc3cccc4ccc(c1)c2c34 [PY, Pyrene] | (380.9 ± 31.2) ng | 4.3 ± 0.0^d,e ppb | (17.5 ± 1.5) ng | (33.0 ± 4.8) ng | (32.0 ± 7.7) ng | (19.4 ± 5.3) ng | (12.7 ± 1.5) ng | (22.0 ± 1.7) ng | (34.5 ± 14.8) ng | (12.1 ± 2.0) ng | (124.5 ± 20.4) ng | (10.7 ± 0.2) ng | (12.4 ± 0.8) ng | (22.4 ± 4.1) ng | (13.3 ± 3.7) ng | (11.4 ± 0.4) ng |  |  |  |  | Total amount in urine (24 hr urine collection, mean ± SD): (40.7 ± 9.6) ng
2 | O=C(O)[C@H]1O[C@@H](Oc2ccc3ccc4cccc5ccc2c3c45)[C@H](O)[C@@H](O)[C@@H]1O [PYOG, Pyrene-1-glucuronide] |  | 10.1 × 10^3 ± 400^c,d ppb | (310 ± 100) ng | (950 ± 70) ng | (1.0 × 10^3 ± 200) ng |  | (860 ± 140) ng | (58 × 10^3 ± 300) ng |  | (18 × 10^3 ± 880) ng | (70 × 10^3 ± 220) ng | (1.7 × 10^3 ± 640) ng | (380 ± 120) ng | (1.7 × 10^3 ± 100) ng | (1.1 × 10^3 ± 390) ng | (420 ± 110) ng | 1.4 × 10^3 ± 100^d ppb | 1.2 × 10^3 ± 300^d ppb | 1.1 × 10^3 ± 200^d ppb | 170.1 × 10^3 ± 700^a ppb | Share of PY excreted via urine as PYOG (24 hr urine): around 10%; Concentration in brain (24 hr, brain, wet-g, mean ± SD, unit ppb printed): 210 ± 60^d ppb; Concentration in duodenum (24 hr, duodenum, wet-g, mean ± SD, unit ppb printed): 65.9 × 10^3 ± 800^b,c ppb; Concentration in jejunum [2]: 87.1 × 10^3 ± 400^b ppb; Concentration in kidney [2]: 20.6 × 10^3 ± 100^c,d ppb; Concentration in liver [2]: 10.2 × 10^3 ± 300^c,d ppb; Concentration in lung [2]: 2.4 × 10^3 ± 900^c,d ppb; Concentration in plasma [3]: 446.0 ± 30^d ppb; Concentration in spleen (24 hr, spleen, wet-g, mean ± SD, unit ppb printed): 790 ± 20^d ppb; Concentration in stomach [2]: 1.7 × 10^3 ± 10^d ppb; Concentration in testes [2]: 1.0 × 10^3 ± 360^d ppb; Concentration in tongue (24 hr, tongue, wet-g, mean ± SD, unit ppb printed): 1.4 × 10^3 ± 500^d ppb
3 | Oc1ccc2ccc3cccc4ccc1c2c34 [PYOH, 1-hydroxypyrene] | (755.8 × 10^3 ± 700) ng | 546 ± 78^b ppb |  | (40.1 × 10^3 ± 100) ng | (11.4 × 10^3 ± 700) ng | (441 ± 29) ng |  | (4.1 × 10^3 ± 400) ng | (1.6 × 10^3 ± 200) ng | (135 ± 19) ng | (8.5 × 10^3 ± 100) ng |  |  | (871 ± 64) ng | (92 ± 37) ng |  | 59.4 × 10^3 ± 800^a,b ppb | 13 × 10^3 ± 800^b ppb |  |  | Share of PY excreted via feces as PYOH (24 hr feces): ~70%
4 | O=S(=O)(O)Oc1ccc2ccc3cccc4ccc1c2c34 [PYOS, Pyrene-1-sulfate] |  | 13 ± 7^b ppb |  | (57 ± 35) ng | (47 ± 16) ng |  | (9 ± 3) ng | (96 ± 10) ng | (48 ± 21) ng | (67 ± 33) ng | (650 ± 260) ng | (29 ± 9) ng |  | (11 ± 1) ng | (12 ± 3) ng |  | 89 ± 58^a,b ppb | 54 ± 20^b ppb | 12 ± 4^b ppb | 261 ± 21^a ppb | Concentration in jejunum [2]: 39 ± 17^b ppb; Concentration in kidney [2]: 76 ± 38^a,b ppb; Concentration in liver [2]: 96 ± 38^a,b ppb; Concentration in lung [2]: 38 ± 13^b ppb; Concentration in plasma [3]: 2 ± 1^b ppb; Concentration in stomach [2]: 11 ± 1^b ppb; Concentration in testes [2]: 11 ± 3^b ppb

From PMC4638293 (The Journal of Veterinary Medical Science, 2015)
